{
  "source": "PubChem BioAssay (NCI)",
  "assay_in_all_cases": "inhibition of tumour cell growth, NCI panel, 384-well format",
  "key": {"786-0 renal": {"test_system": "786-0 renal"}, "A549 NSCLC": {"test_system": "A549 NSCLC"}, "BT-549 breast": {"test_system": "BT-549 breast"}, "CAKI-1 renal": {"test_system": "CAKI-1 renal"}, "COLO 205 colon": {"test_system": "COLO 205 colon"}, "DU-145 prostate": {"test_system": "DU-145 prostate"}, "EKVX NSCLC": {"test_system": "EKVX NSCLC"}, "HCC-2998 colon": {"test_system": "HCC-2998 colon"}, "HCT-116 colon": {"test_system": "HCT-116 colon"}, "HCT-15 colon": {"test_system": "HCT-15 colon"}, "HOP-92 NSCLC": {"test_system": "HOP-92 NSCLC"}, "HS 578T breast": {"test_system": "HS 578T breast"}, "HT29 colon": {"test_system": "HT29 colon"}, "IGROV1 ovarian": {"test_system": "IGROV1 ovarian"}, "K-562 leukemia": {"test_system": "K-562 leukemia"}, "KM12 colon": {"test_system": "KM12 colon"}, "LOX IMVI melanoma": {"test_system": "LOX IMVI melanoma"}, "M14 melanoma": {"test_system": "M14 melanoma"}, "MALME-3M melanoma": {"test_system": "MALME-3M melanoma"}, "MCF7 breast": {"test_system": "MCF7 breast"}, "MDA-MB-435 melanoma": {"test_system": "MDA-MB-435 melanoma"}, "MDA-MB-468 breast": {"test_system": "MDA-MB-468 breast"}, "MOLT-4 leukemia": {"test_system": "MOLT-4 leukemia"}, "NCI-H226 lung": {"test_system": "NCI-H226 lung"}},
  "note": "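GI50 is the concentration that inhibits growth by half. TGI is the concentration that stops growth completely.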",
  "data": [
    {"compound": "N#Cc1cnc(Nc2cc(NC[C@H]3CNCCO3)c(C(F)(F)F)cn2)cn1", "values": [
      {"measurement": "GI50", "setting": "786-0 renal", "value": 1.59, "unit": "µM"},
      {"measurement": "TGI", "setting": "786-0 renal", "value": 15.2, "unit": "µM"},
      {"measurement": "GI50", "setting": "A549 NSCLC", "value": 21.5, "unit": "µM"},
      {"measurement": "TGI", "setting": "A549 NSCLC", "value": "> 100", "unit": "µM"},
      {"measurement": "GI50", "setting": "BT-549 breast", "value": 0.377, "unit": "µM"},
      {"measurement": "TGI", "setting": "BT-549 breast", "value": 1.71, "unit": "µM"},
      {"measurement": "GI50", "setting": "CAKI-1 renal", "value": 12.2, "unit": "µM"},
      {"measurement": "TGI", "setting": "CAKI-1 renal", "value": 53.8, "unit": "µM"},
      {"measurement": "GI50", "setting": "COLO 205 colon", "value": 15.3, "unit": "µM"},
      {"measurement": "TGI", "setting": "COLO 205 colon", "value": 34.4, "unit": "µM"},
      {"measurement": "GI50", "setting": "DU-145 prostate", "value": 5.48, "unit": "µM"},
      {"measurement": "TGI", "setting": "DU-145 prostate", "value": 19.4, "unit": "µM"},
      {"measurement": "GI50", "setting": "EKVX NSCLC", "value": 14.5, "unit": "µM"},
      {"measurement": "TGI", "setting": "EKVX NSCLC", "value": 34, "unit": "µM"},
      {"measurement": "GI50", "setting": "HCC-2998 colon", "value": 0.402, "unit": "µM"},
      {"measurement": "TGI", "setting": "HCC-2998 colon", "value": 3.09, "unit": "µM"},
      {"measurement": "GI50", "setting": "HCT-116 colon", "value": 17.5, "unit": "µM"},
      {"measurement": "TGI", "setting": "HCT-116 colon", "value": 47.5, "unit": "µM"},
      {"measurement": "GI50", "setting": "HCT-15 colon", "value": 5.16, "unit": "µM"},
      {"measurement": "TGI", "setting": "HCT-15 colon", "value": "> 65.1", "unit": "µM"},
      {"measurement": "GI50", "setting": "HOP-92 NSCLC", "value": 0.504, "unit": "µM"},
      {"measurement": "TGI", "setting": "HOP-92 NSCLC", "value": 9.53, "unit": "µM"},
      {"measurement": "GI50", "setting": "HS 578T breast", "value": 0.337, "unit": "µM"},
      {"measurement": "TGI", "setting": "HS 578T breast", "value": 2.22, "unit": "µM"},
      {"measurement": "GI50", "setting": "HT29 colon", "value": 20.6, "unit": "µM"},
      {"measurement": "TGI", "setting": "HT29 colon", "value": "> 74.7", "unit": "µM"},
      {"measurement": "GI50", "setting": "IGROV1 ovarian", "value": 9.13, "unit": "µM"},
      {"measurement": "TGI", "setting": "IGROV1 ovarian", "value": 47.6, "unit": "µM"},
      {"measurement": "GI50", "setting": "K-562 leukemia", "value": 0.58, "unit": "µM"},
      {"measurement": "TGI", "setting": "K-562 leukemia", "value": 2.23, "unit": "µM"},
      {"measurement": "GI50", "setting": "KM12 colon", "value": 1.67, "unit": "µM"},
      {"measurement": "TGI", "setting": "KM12 colon", "value": 18, "unit": "µM"},
      {"measurement": "GI50", "setting": "LOX IMVI melanoma", "value": 14.9, "unit": "µM"},
      {"measurement": "TGI", "setting": "LOX IMVI melanoma", "value": 32.6, "unit": "µM"},
      {"measurement": "GI50", "setting": "M14 melanoma", "value": 0.292, "unit": "µM"},
      {"measurement": "TGI", "setting": "M14 melanoma", "value": 0.785, "unit": "µM"},
      {"measurement": "GI50", "setting": "MALME-3M melanoma", "value": 7.25, "unit": "µM"},
      {"measurement": "TGI", "setting": "MALME-3M melanoma", "value": 22.9, "unit": "µM"},
      {"measurement": "GI50", "setting": "MCF7 breast", "value": 0.728, "unit": "µM"},
      {"measurement": "TGI", "setting": "MCF7 breast", "value": 20.7, "unit": "µM"},
      {"measurement": "GI50", "setting": "MDA-MB-435 melanoma", "value": 1.77, "unit": "µM"},
      {"measurement": "TGI", "setting": "MDA-MB-435 melanoma", "value": 10.5, "unit": "µM"},
      {"measurement": "GI50", "setting": "MDA-MB-468 breast", "value": 13.9, "unit": "µM"},
      {"measurement": "TGI", "setting": "MDA-MB-468 breast", "value": 27.2, "unit": "µM"},
      {"measurement": "GI50", "setting": "MOLT-4 leukemia", "value": 0.404, "unit": "µM"},
      {"measurement": "TGI", "setting": "MOLT-4 leukemia", "value": 1.34, "unit": "µM"},
      {"measurement": "GI50", "setting": "NCI-H226 lung", "value": 20.1, "unit": "µM"}
    ]}
  ]
}
